Experimental data reported in patent US20260365653A1, “IRREVERSIBLE MUTEGFR INHIBITORS” (Bayer Aktiengesellschaft, priority 2022, published 2026).

Legend:
[1] = biological target: T1, mutEGFR (D770_N771insSVD) (Homo sapiens, UniProt P00533, DUP768-770); assay: Exon20-Mutant-EGFR (D770_N771insSVD) kinase assay (TR-FRET); format: biochemical
T1 construct: GST-EGFR #3 (SVD between D770 and N771); made in house; host or cells: Sf9 insect cells (baculovirus)

[2] = biological target: T2, mutEGFR (D770_N771insNPG, T790) (Homo sapiens, UniProt P00533, INS770NPG/T790M); assay: mutEGFR (D770_N771insNPG, T790) kinase assay; format: biochemical
T2 construct: exact insNPG construct not described; in-house EGFR proteins were N-terminal GST fusions from baculovirus/insect cells (borders R669-A1210 given only for WT, insSVD, insASV)
T2 sequence (P00533 with tags, fused parts or gaps INS770NPG/T790M limits assumed): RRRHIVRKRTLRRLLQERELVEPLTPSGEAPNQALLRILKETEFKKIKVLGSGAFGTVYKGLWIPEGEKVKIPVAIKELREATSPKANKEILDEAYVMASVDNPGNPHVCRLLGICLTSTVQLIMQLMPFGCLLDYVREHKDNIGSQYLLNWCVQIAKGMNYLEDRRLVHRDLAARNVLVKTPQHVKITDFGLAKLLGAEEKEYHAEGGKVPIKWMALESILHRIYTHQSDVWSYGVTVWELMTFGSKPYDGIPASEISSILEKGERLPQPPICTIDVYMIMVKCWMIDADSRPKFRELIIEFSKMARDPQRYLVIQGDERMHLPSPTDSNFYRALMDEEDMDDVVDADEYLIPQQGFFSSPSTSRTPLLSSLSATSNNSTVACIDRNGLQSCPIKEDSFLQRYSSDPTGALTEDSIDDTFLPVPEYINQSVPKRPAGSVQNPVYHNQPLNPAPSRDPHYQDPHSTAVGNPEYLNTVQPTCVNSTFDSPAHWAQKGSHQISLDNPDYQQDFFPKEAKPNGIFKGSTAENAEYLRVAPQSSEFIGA
Excerpt: The different EGFR proteins used in the biochemical kinase activity inhibition assays were generated inhouse by expression in insect cells using Baculo Virus system and subsequent purification as described in the following paragraphs.
The cDNAs encoding the various protein sequences from human EGFR human (P00533) were optimized for expression in eukaryotic cells and synthesized by the GeneArt Technology at Life Technologies.

[3] = test system: BA/F3 (insSVD) cells; assay: Ba/F3-EGFR-insSVD cell survival assay (Cell Titer-Glo); format: cell-based
Procedure, shortened: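 Ba/F3 cells stably expressing retroviral EGFR-insSVD or insSVD T790M, grown without IL-3 on 10 ng/ml EGF, 4000 cells/well. Compound pinned in, 48 h at 37° C. Viability by CellTiter-Glo luminescence.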

[4] = mutEGFR (D770_N771insSVD) kinase assay IC50, Table 2a, D770_N771insSVD, 2 mM ATP
[5] = Mus musculus, BaF3, 48 h, Table 3a, cell survival, Cell Titer-Glo, with 10 ng/ml EGF, without IL-3
[6] = mutEGFR (D770_N771insSVD) kinase assay IC50, Table 2b (from US Priority Patent Application), mutEGFR D770_N771insSVD
[7] = Table 2b (from US Priority Patent Application), mutEGFR D770_N771insNPG
[8] = Mus musculus, BaF3, 48 h, Table 3b, Ba/F3 EGFR-insSVD

T1 sequence (P00533 with tags, fused parts or gaps DUP768-770): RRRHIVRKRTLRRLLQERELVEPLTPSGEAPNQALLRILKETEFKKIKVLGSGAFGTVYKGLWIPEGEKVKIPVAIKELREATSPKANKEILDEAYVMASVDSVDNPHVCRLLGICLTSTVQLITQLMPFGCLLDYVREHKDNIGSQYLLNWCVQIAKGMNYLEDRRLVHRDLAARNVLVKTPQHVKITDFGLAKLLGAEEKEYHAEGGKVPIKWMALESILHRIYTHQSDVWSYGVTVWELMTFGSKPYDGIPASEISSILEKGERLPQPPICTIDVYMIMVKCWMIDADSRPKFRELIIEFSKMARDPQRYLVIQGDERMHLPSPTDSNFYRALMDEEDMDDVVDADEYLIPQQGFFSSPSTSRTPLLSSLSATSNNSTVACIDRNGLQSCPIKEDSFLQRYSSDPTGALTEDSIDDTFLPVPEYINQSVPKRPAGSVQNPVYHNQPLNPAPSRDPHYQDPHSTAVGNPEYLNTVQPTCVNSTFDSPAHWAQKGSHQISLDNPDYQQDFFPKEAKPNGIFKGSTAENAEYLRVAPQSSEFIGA

| SMILES | IC50 [1, 4] [nM] | IC50 ([2]; Table 2a, D770_N771insNPG) [nM] | IC50 [1, 6] [nM] | IC50 [2, 7] [nM] | IC50 [3, 5] [nM] | IC50 [3, 8] [nM] | IC50 ([3]; Table 3a, cell survival, Cell Titer-Glo, with 10 ng/ml EGF, without IL-3, 48 h) [nM] |
| --- | --- | --- | --- | --- | --- | --- | --- |
| CNC(=O)CC1CN(C(=O)/C=C/CN(C)C)Cc2c(-c3ccncc3)c(-c3ccc(F)cc3)nn21 (racemic) [Example 221, 2-[(7RS)-5-[(2E)-4-(dimethylamino)but-2-enoyl]-2-(4-fluorophenyl)-3-(pyridin-4-yl)-4,5,6,7-tetrahydropyrazolo[1,5-a]pyrazin-7-yl]-N-methylacetamide] | 3.69 | 15.3 |  |  | 2510 |  |  |
| Cc1ccc(-c2nn3c(c2-c2ccnc4[nH]ccc24)CN(C(=O)/C=C/CN(C)C)CC3)c(F)c1 [Example 99, (2E)-4-(dimethylamino)-1-[2-(2-fluoro-4-methylphenyl)-3-(1H-pyrrolo[2,3-b]pyridin-4-yl)-6,7-dihydropyrazolo[1,5-a]pyrazin-5(4H)-yl]but-2-en-1-one] | 5.72 | 57.1 |  |  | 337 |  |  |
| C=CC(=O)N1Cc2c(-c3ccncc3)c(-c3ccc(F)cc3)nn2C(C(=O)NC)C1 (single isomer, unassigned; isomer 1) [Example 205, 5-acryloyl-2-(4-fluorophenyl)-N-methyl-3-(pyridin-4-yl)-4,5,6,7-tetrahydropyrazolo[1,5-a]pyrazine-7-carboxamide (isomer 1)] | 137 | 144 |  |  | 824 |  |  |
| NCC#CC(=O)N1CCn2nc(-c3ccc(F)cc3)c(-c3ccncc3)c2C1 [Example 91, 4-amino-1-[2-(4-fluorophenyl)-3-(pyridin-4-yl)-6,7-dihydropyrazolo[1,5-a]pyrazin-5(4H)-yl]but-2-yn-1-one] | 26.3 | 52.8 |  |  | 1410 |  |  |
| CC1c2c(-c3ccnc4[nH]ccc34)c(-c3ccc(F)cc3)nn2CCN1C(=O)/C=C/CN(C)C (single isomer, unassigned; isomer 1) [Example 255, 4-(dimethylamino)-1-[2-(4-fluorophenyl)-4-methyl-3-(1H-pyrrolo[2,3-b]pyridin-4-yl)-6,7-dihydropyrazolo[1,5-a]pyrazin-5(4H)-yl]but-2-en-1-one (isomer 1)] | 3180 | 9610 |  |  | 296 |  |  |
| Cc1c[nH]c2nccc(-c3c(-c4ccc(F)cc4)nn4c3C(C)N(C(=O)/C=C/CN(C)C)CC4)c12 (single isomer, unassigned; isomer 2) [Example 256, (E)-4-(dimethylamino)-1-(2-(4-fluorophenyl)-4-methyl-3-(3-methyl-1H-pyrrolo[2,3-b]pyridin-4-yl)-6,7-dihydropyrazolo[1,5-a]pyrazin-5(4H)-yl) but-2-en-1-one (isomer 2)] | 7490 | > 1630 |  |  | 158 |  |  |
| C=CC(=O)N1CCn2nc(-c3ccc(Cl)cc3F)c(-c3ccncc3)c2C1C (single isomer, unassigned; isomer 2) [Example 279, 1-[2-(4-chloro-2-fluorophenyl)-4-methyl-3-(pyridin-4-yl)-6,7-dihydropyrazolo[1,5-a]pyrazin-5(4H)-yl]prop-2-en-1-one (isomer 2)] | 50.6 | 62.2 |  |  |  |  | 429 |
| C=CC(=O)N1Cc2c(-c3ccncc3)c(-c3ccc4sccc4c3)nn2C[C@@H]1C [Example 276, 1-[(6S)-2-(1-benzothiophen-5-yl)-6-methyl-3-(pyridin-4-yl)-6,7-dihydropyrazolo[1,5-a]pyrazin-5(4H)-yl]prop-2-en-1-one] | 0.0909 | 0.157 |  |  | 6.22 |  |  |
| CN(C)C/C=C/C(=O)N1CCn2nc(-c3ccc(C(F)(F)F)cc3)c(-c3ccncc3)c2C1 [Example 34, (2E)-4-(dimethylamino)-1-[3-(pyridin-4-yl)-2-[4-(trifluoromethyl)phenyl]-6,7-dihydropyrazolo[1,5-a]pyrazin-5(4H)-yl]but-2-en-1-one] | 1.37 | 4.32 |  |  | 198 |  |  |
| CC1Cn2nc(-c3ccc4ccsc4c3)c(-c3ccncc3)c2CN1C(=O)/C=C/CN(C)C (racemic) [Example 236, (2E)-1-[(RS)-2-(1-benzothiophen-6-yl)-6-methyl-3-(pyridin-4-yl)-6,7-dihydropyrazolo[1,5-a]pyrazin-5(4H)-yl]-4-(dimethylamino)but-2-en-1-one] | 0.181 | 0.289 |  |  | 256 |  |  |
| CN(C)C/C=C/C(=O)N1CCn2nc(-c3ccc(SC(F)(F)F)cc3)c(-c3ccncc3)c2C1 [Example 161, (2E)-4-(dimethylamino)-1-[3-(pyridin-4-yl)-2-{4-[(trifluoromethyl)sulfanyl]phenyl}-6,7-dihydropyrazolo[1,5-a]pyrazin-5(4H)-yl]but-2-en-1-one] | 92.9 | 629 |  |  | 1990 |  |  |
| CC(C)(C)OC(=O)NC1(C#CC(=O)N2CCn3nc(-c4ccc(F)cc4)c(-c4ccncc4)c3C2)CC1 [Example 86, tert-butyl (1-{3-[2-(4-fluorophenyl)-3-(pyridin-4-yl)-6,7-dihydropyrazolo[1,5-a]pyrazin-5(4H)-yl]-3-oxoprop-1-yn-1-yl}cyclopropyl) carbamate] | 122 | 237 |  |  | 971 |  |  |
| C=CC(=O)N1CCn2nc(-c3ccc(C(F)(F)F)cc3)c(-c3ccnc4[nH]c(C)c(C)c34)c2C1 [Example 56, 1-[3-(2,3-dimethyl-1H-pyrrolo[2,3-b]pyridin-4-yl)-2-[4-(trifluoromethyl)phenyl]-6,7-dihydropyrazolo[1,5-a]pyrazin-5(4H)-yl]prop-2-en-1-one] | 281 | 670 |  |  | 124 |  |  |
| C=CC(=O)N1Cc2c(-c3ccncc3)c(-c3cccc(C#N)c3)nn2C[C@@H]1C [Example 127, 3-[(6S)-6-methyl-5-(prop-2-enoyl)-3-(pyridin-4-yl)-4,5,6,7-tetrahydropyrazolo[1,5-a]pyrazin-2-yl]benzonitrile] | 25.4 | 5.65 |  |  | 39 |  |  |
| C[C@@H]1Cn2nc(-c3cccc(C#N)c3)c(-c3ccncc3)c2CN1C(=O)/C=C/CN(C)C [Example 100, 3-[(6R)-5-[(2E)-4-(dimethylamino)but-2-enoyl]-6-methyl-3-(pyridin-4-yl)-4,5,6,7-tetrahydropyrazolo[1,5-a]pyrazin-2-yl]benzonitrile] | 19.6 | 3.57 |  |  | 420 |  |  |

More lines, main results first:

| IC50 [1, 4] [nM] | IC50 ([2]; Table 2a, D770_N771insNPG) [nM] | IC50 [1, 6] [nM] | IC50 [2, 7] [nM] | SMILES | IC50 [3, 5] [nM] | IC50 [3, 8] [nM] | IC50 ([3]; Table 3a, cell survival, Cell Titer-Glo, with 10 ng/ml EGF, without IL-3, 48 h) [nM] |
| --- | --- | --- | --- | --- | --- | --- | --- |
| 0.144 | 0.218 |  |  | C=CC(=O)N1CCn2nc(-c3ccc4cc[nH]c4c3F)c(-c3ccncc3)c2C1 [Example 114] | 13.7 |  |  |
| 3.62 | 13.8 |  |  | C=CC(=O)N1CCn2nc(-c3ccc(OC(F)F)cc3)c(-c3ccncc3)c2C1 [Example 128, 1-{2-[4-(difluoromethoxy)phenyl]-3-(pyridin-4-yl)-6,7-dihydropyrazolo[1,5-a]pyrazin-5(4H)-yl}prop-2-en-1-one] | 139 |  |  |
| 0.554 | 0.489 |  |  | C=CC(=O)N1CCn2nc(-c3ccc(OC)c(Cl)c3)c(-c3ccncc3)c2C1 [Example 38, 1-[2-(3-chloro-4-methoxyphenyl)-3-(pyridin-4-yl)-6,7-dihydropyrazolo[1,5-a]pyrazin-5(4H)-yl]prop-2-en-1-one] | 32.1 |  |  |
| 55.7 | 85.8 | 55.7 | 85.8 | C=C(F)C(=O)N1CCn2nc(-c3ccc(F)cc3)c(-c3ccncc3)c2C1 [Example 17, 2-fluoro-1-[2-(4-fluorophenyl)-3-(pyridin-4-yl)-6,7-dihydropyrazolo[1,5-a]pyrazin-5(4H)-yl]prop-2-en-1-one] | 1150 | 1150 |  |
| 1.22 | 3.3 |  |  | O=C(/C=C/C(F)(F)F)N1CCn2nc(-c3ccc(F)cc3)c(-c3ccncc3)c2C1 [Example 67, (2E)-4,4,4-trifluoro-1-[2-(4-fluorophenyl)-3-(pyridin-4-yl)-6,7-dihydropyrazolo[1,5-a]pyrazin-5(4H)-yl]but-2-en-1-one] | 83.4 |  |  |
| 0.841 | 1.38 |  |  | C=CC(=O)N1CCn2nc(-c3cccc(C)c3)c(-c3ccncc3)c2C1 [Example 139, 1-[2-(3-methylphenyl)-3-(pyridin-4-yl)-6,7-dihydropyrazolo[1,5-a]pyrazin-5(4H)-yl]prop-2-en-1-one] | 25.9 |  |  |
| 2.29 | 9.91 |  |  | CN(C)C/C=C/C(=O)N1CCn2nc(-c3ccccc3F)c(-c3ccncc3)c2C1 [Example 153, (2E)-4-(dimethylamino)-1-[2-(2-fluorophenyl)-3-(pyridin-4-yl)-6,7-dihydropyrazolo[1,5-a]pyrazin-5(4H)-yl]but-2-en-1-one] | 557 |  |  |
| 29.6 | 43.8 | 29.6 | 43.8 | C=CC(=O)N1CCn2nc(-c3ccc(F)cc3)c(-c3ccnc(OC)c3)c2C1 [Example 11, 1-[2-(4-fluorophenyl)-3-(2-methoxypyridin-4-yl)-6,7-dihydropyrazolo[1,5-a]pyrazin-5(4H)-yl]prop-2-en-1-one] | 1560 | 1560 |  |
